Holding throughout (type): cell-based
For one test, the system named is caspase 3. The experiment in a line: Western Blot of caspase 3 in LNCaP cells. The conditions noted are these: 1 μM, 72 hours, control R.I: 0.108. The method, then: (§1) (A): is a Western Blot analysis of expression of the phosphorylated NFκB p50, caspase 3 protein and its cleaved form in LNCaP prostate cancer cell line after exposure to GHRH antagonist JMR-132 and GHRH (1-29)NH2. n=2
(§2) Prostate cancer cells LNCaP and breast cancer cells MCF-7 were obtained from American Type Culture Collection (Manassas, Va.) and were cultured as described previously. The antibodies that detect P53, PCNA, GPX1, SOD1, NQ01, Thioredoxin 1, COX2 and COX IV were purchased from Cell Signalling (Danvers, Mass.). The antibodies that detect β actin, NFκB50, pNFκB50, caspase 3 and its cleaved form were purchased from Santa Cruz Biotechnology (Santa Cruz, Calif.). The antibodies against GHRH-R (batch number: SV95) and SV1 (batch number: JH 2317/5) were raised in our laboratory. The signals for the immunoreactive proteins were visualized in a Chemi Doc XRS system (Biorad, Hercules, Calif.). The western Blot assay as well the quantification analysis of the blots was performed as described previously.
(§3) LNCaP cells cultured in vitro were exposed to 1 μM GHRH antagonist JMR-132 and 1 μM GHRH(1-29)NH2. The expression levels of NFκB p50, the phosphorylated NFκB p50, caspase 3 (M.W: 35 KDa) and the cleaved caspase 3 were detected by Western Blot. […]

A further test deals with phosphorylated NFκB p50. As to the kind of experiment: Western Blot of phosphorylated NFκB p50 in LNCaP cells. To be noted: 1 μM, 72 hours, control R.I: 0.521. The method, then: as §1, §2, §3
In general terms: A western blot detects proteins with antibodies after separation by electrophoresis.

Another test concerns NQ01. As to the kind of experiment: Western Blot of NQ01 in LNCaP cells. To be noted: 1 μM, 72 hour exposure, control R.I: 0.175. The method, then:
(§4) FIG. 7: is a Western Blot analysis of expression of the antioxidant enzymes TRX1, NQ01, GPX1 and SOD1 in LNCaP prostate cancer cell line after 72 hour exposure to GHRH antagonist JMR-132 and GHRH(1-29)NH2 n=2.
as §2
(§5) LNCaP prostate cancer cell line cultured in vitro was exposed to 1 μM JMR-132 and GHRH(1-29)NH2. The expression levels of the detoxifying enzymes were measured by Western Blot. The GPX1 (M.W: 22 Kda) protein expression was higher in the cells exposed to GHRH (1-29)NH2 (R.I: 0.126) and lower in the cells incubated with GHRH antagonist JMR-132 (R.I: 0.035), as compared to control (R.I:0.107). […]

Another test concerns thioredoxin 1. The experiment in a line: Western Blot of thioredoxin 1 in LNCaP cells. The conditions noted are these: 1 μM, 72 hour exposure, control R.I: 0.210. The method, then: as §4, §2, §5
In test [1] the test system is LNCaP prostate cancer cell line. The experiment in a line: Cell proliferation rate assay in LNCaP cells. To be noted: vs LNCaP cells cultured without peptide, 72 hours incubation (FIG. 1). The source says: (A) is a graphic presentation of the changes in the proliferation rate of the LNCaP prostate cancer cell line after exposure to GHRH antagonist JMR-132 and GHRH (1-29)NH2. Percentage increase or decrease are expressed vs LNCaP cells cultured in the absence of JMR-132 or GHRH (1-29)NH2*(P<0.05), **(P<0.005).
The rate of the cell proliferation […] microscope using the trypan blue assay or a Z series Coulter Counter (Beckman Coulter, Fullerton, Calif., USA). The data are expressed as the mean±SEM. Statistical evaluation of the results was performed by the Student's t test (two-tailed). P values shown are against the control group.
LNCaP prostate cancer cells were exposed to two concentrations of GHRH(1-29)NH2 and JMR-132. […] However, GHRH (1-29)NH2 at 0.1 μM concentration stimulated the proliferation rate of LNCaP cells by 13%. GHRH antagonist JMR-132 at the doses of 0.1 μM and 1 μM decreased the proliferation of LNCaP prostate cancer cell line by 32% and 37% respectively. In addition, the expression levels of the PCNA (M.W: 36 KDa) were evaluated by Western Blot. The PCNA protein expression was increased in the cells exposed to 0.1 μM and 1 μM of GHRH (1-29)NH2 (R.I: 0.77 and 0.925 respectively) and decreased in the cells that incubated with 0.1 μM of GHRH antagonist JMR-132. (R.I: 0.495) as compared to control (R.I: 0.656).

Ends that are not written are not given here.

The source of these data is patent US20100152114A1, “Antioxidant activity of GH-RH Antagonists” (priority 2008, published 2010).

As to “GHRH(1-29)NH2 (YADAIFTNSYRKVLGQLSARKLLQDIMSR-NH2; UniProt P01286 32-60, looked up, fragment) [Growth Hormone-Releasing Hormone (1-29) amide, agonist peptide used for comparison with the antagonist]”, the “expression of caspase 3 protein (R.I)” value with caspase 3 was found to be 0.083. Moreover, the “expression of the phosphorylated NFκB (R.I)” value in the test with phosphorylated NFκB p50 worked out at 0.623. Further, in the test on NQ01, the “NQ01 protein expression (R.I)” value is recorded as 0.196. Also, the “levels of the thioredoxin 1 protein (R.I)” value in the test with thioredoxin 1 turned out to be 0.277. Moreover, in test [1] (0.1 μM), the “increase (stimulation) of the proliferation rate of LNCaP cells” value was determined as 13%. In test [1] (1 μM), the “increase of the proliferation rate of LNCaP cells” value is given as 7%.
“[PhAc^0-Tyr^1, D-Arg^2, Cpa^6, Ala^8, Har^9, Tyr(Me)^10, His^11, Abu^15, His^20, Nle^27, D-Arg^28, Har^29]hGH-RH(1-29)NH2 [JMR-132]”: the “expression of caspase 3 protein (R.I)” value with caspase 3 was found to be 0.120. Further, the “expression of the phosphorylated NFκB (R.I)” value in the test with phosphorylated NFκB p50 came out at 0.451. Further, the “NQ01 protein expression (R.I)” value in the test with NQ01 is 0.025. Moreover, the “levels of the thioredoxin 1 protein (R.I)” value in the test with thioredoxin 1 is listed as 0.196. Moreover, the “decrease of the proliferation of LNCaP prostate cancer cell line” value in test [1] (0.1 μM) amounted to 32%; in test [1] (1 μM) it was 37%.
